Paper PMC5039936 (Clinical Pharmacology and Therapeutics, 2015)
“And” between values parts separate entries of the source, which are not always exact repeats. Equal entries are not always repeated.

Legend:
[1] = Population PK model of plasma orteronel in patients with mCRPC; type: in vivo, human
[2] = Phase 1 single-dose renal impairment study C21010, plasma PK; type: in vivo, human; conditions: for AUC(0-inf): human, plasma, po, 200 mg, AUCinf, geometric LSM, single oral 200 mg dose; for increase in mean AUCinf compared with normal renal function: single 200 mg dose
[3] = Phase 1 renal impairment study C21010, urine PK; type: in vivo, human; conditions: geometric mean; for CL renal: human, urine, oral, 200 mg, CLrenal
[4] = Plasma protein binding by rapid equilibrium dialysis in study C21010; type: in vitro ADME; conditions: human, oral, 200 mg, mean percent unbound of orteronel in plasma, range across the renal function groups
[5] = In vitro clearance in human hepatocytes; type: in vitro ADME
[6] = In vitro clearance in human liver microsomes; type: in vitro ADME
[7] = ref unpublished data, Suri, A., Pusalkar, S., Li, Y., & Prakash, S. Clin. Pharmacol. Drug Development 2015, cited from earlier work

For CNC(=O)c1ccc2cc([C@@]3(O)CCn4cncc43)ccc2c1 [orteronel], the ka ([1]; base model, mean (SD)) was 2.1 (0.2) h^−1, the “predicted decrease in CL/F” value ([1]; final PK model, reduction in CLcr from 92 to 46 mL/min) was 28% and the BILI on ka ([1]; final model covariate effect, mean (SD)) was “–0.46 (0.20)”. For the same compound, the CL/F ([1]; final model, mean (SD)) was 17.7 L/h, the V/F ([1]; final model, mean (SD)) was 261 L and the ka ([1]; final model, mean (SD)) was 2.2 (0.3) h^−1. For the same compound, the “slope of regression of CL/F vs CLcr” value ([2]; CL/F = 10.90 + 0.101*CLcr, r2 = 0.2177) was 0.101, the AUC(0-inf) ([2]; mild chronic renal impairment (CLcr ≥60–89 mL/min)) was 11300 ng·h/mL and the AUC(0-inf) ([2]; moderate chronic renal impairment (CLcr ≥30–59 mL/min)) was 13100 ng·h/mL. The AUC(0-inf) ([2]; normal renal function (CLcr ≥90 mL/min), fasted) was 9500 ng·h/mL, the AUC(0-inf) ([2]; severe chronic renal impairment (CLcr ≥15–29 mL/min)) was 17800 ng·h/mL and the “increase in mean AUCinf compared with normal renal function” value (“increase in mean AUCinf” for short) ([2]; mild chronic RI) was 18.6% and 19%. For the same compound, the “increase in mean AUCinf” value ([2]; moderate chronic RI) was 38% and 38.4%, the “increase in mean AUCinf” value ([2]; severe chronic RI) was 87% and 87.1% and the CL renal ([3]; mild chronic RI) was 97.8 mL/min. The CL renal ([3]; moderate chronic RI) was 49.2 mL/min, the CL renal ([3]; normal renal function) was 158 mL/min and the CL renal ([3]; severe chronic RI) was 25.8 mL/min. For the same compound, the “fraction of dose excreted as unchanged orteronel (Fe)” value ([3]; mild chronic RI) was 33.1%, the “fraction of dose excreted as unchanged orteronel (Fe)” value ([3]; moderate chronic RI) was 19.4% and the “fraction of dose excreted as unchanged orteronel (Fe)” value ([3]; normal renal function) was 44.9%. For the same compound, the “fraction of dose excreted as unchanged orteronel (Fe)” value ([3]; severe chronic RI) was 13.8%, the fraction unbound at 2 h [4] was 0.547 to 0.589 and the in vitro clearance [5] was “no appreciable in vitro clearance”. For the same compound, the in vitro clearance [6] was “no appreciable in vitro clearance”, the “share of orteronel CL characterized as renal CL” value ([7]; intact parent compound in urine) was 53% and the “share of CL characterized as other CL” value ([7]; metabolites formed via hydrolysis, neither renal nor hepatic) was 19%.
